# From patent US12403137B2, “Compounds and methods of use” (Tango Therapeutics, Inc., priority 2019, dated 2025)
# How the values were obtained:
# PRMT5 [1] = biological target: T1, PRMT5 (Homo sapiens, UniProt O14744); test: PRMT5 inhibition assay with SAM as cofactor; type: biochemical; settings: against PRMT5 in the presence of SAM as cofactor
# T1 construct: purchased Viva (custom protein)
# From the text: (§1) The Ki values can be calculated from the IC50 values as described in the Examples section. As detailed in the Examples section, for the assay performed in the presence of SAM, IC50=Ki×1.5 (Ki=IC50/1.5). For the assay performed in the presence of MTA, IC50=Ki×13.5 (Ki=IC50/13.5). Column 6 indicates the ratio between the Ki of compounds in the presence of SAM and the Ki of compounds in the presence of MTA
# PRMT5 [2] = biological target: T1, PRMT5; test: PRMT5 inhibition assay with MTA as cofactor; type: biochemical; settings: for IC50: against PRMT5 with MTA as cofactor; for SAM/MTA Ratio: ratio of Ki in the presence of SAM to Ki in the presence of MTA, Ki=IC50/1.5 (SAM), Ki=IC50/13.5 (MTA)
# From the text: as §1
# PRMT5 [3] = biological target: T1, PRMT5; test: PRMT5 inhibition assay with no cofactor; type: biochemical; settings: against PRMT5 with no cofactor; read-out: No Co-factor IC50
# [4] = test system: HAP1 MTAP-intact cell line; test: SDMA in-cell western assay, HAP1 MTAP-intact; type: cell-based; settings: Homo sapiens
# Outline: (§2)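 IC50 values come from an SDMA in-cell western run in isogenic HAP1 cells, either MTAP-null or expressing endogenous MTAP. The intact-to-deleted IC50 ratio is used to score MTAP selectivity.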
# [5] = test system: HAP1 MTAP-deleted cell line; test: SDMA in-cell western assay, HAP1 MTAP-deleted; type: cell-based; settings: for IC50: Homo sapiens, HAP1 MTAP-deleted (MTAP-null) cell line; for MTAP Intact/Deleted Ratio: IC50 ratio HAP1 MTAP-intact / HAP1 MTAP-deleted, >=3 fold considered MTAP-selective
# Outline: as §2
# T1 sequence (O14744 whole entry): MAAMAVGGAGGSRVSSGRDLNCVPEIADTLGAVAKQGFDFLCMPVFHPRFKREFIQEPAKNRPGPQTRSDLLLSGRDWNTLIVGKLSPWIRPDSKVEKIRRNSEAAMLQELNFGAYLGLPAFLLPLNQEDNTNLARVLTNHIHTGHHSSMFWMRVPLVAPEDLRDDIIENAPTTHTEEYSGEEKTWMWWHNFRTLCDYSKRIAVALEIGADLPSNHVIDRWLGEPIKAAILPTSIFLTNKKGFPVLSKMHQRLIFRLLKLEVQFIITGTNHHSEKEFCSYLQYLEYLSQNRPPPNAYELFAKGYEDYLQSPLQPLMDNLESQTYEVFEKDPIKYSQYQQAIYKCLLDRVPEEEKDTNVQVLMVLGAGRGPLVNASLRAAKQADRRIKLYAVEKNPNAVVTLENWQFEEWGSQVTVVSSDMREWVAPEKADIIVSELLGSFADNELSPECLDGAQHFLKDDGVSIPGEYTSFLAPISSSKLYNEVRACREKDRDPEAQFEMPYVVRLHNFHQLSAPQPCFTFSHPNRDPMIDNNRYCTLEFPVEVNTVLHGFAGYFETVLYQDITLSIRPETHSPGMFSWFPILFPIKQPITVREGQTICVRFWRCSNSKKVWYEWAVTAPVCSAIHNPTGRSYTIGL
# T1 sequence (Q9BQA1 whole entry partner): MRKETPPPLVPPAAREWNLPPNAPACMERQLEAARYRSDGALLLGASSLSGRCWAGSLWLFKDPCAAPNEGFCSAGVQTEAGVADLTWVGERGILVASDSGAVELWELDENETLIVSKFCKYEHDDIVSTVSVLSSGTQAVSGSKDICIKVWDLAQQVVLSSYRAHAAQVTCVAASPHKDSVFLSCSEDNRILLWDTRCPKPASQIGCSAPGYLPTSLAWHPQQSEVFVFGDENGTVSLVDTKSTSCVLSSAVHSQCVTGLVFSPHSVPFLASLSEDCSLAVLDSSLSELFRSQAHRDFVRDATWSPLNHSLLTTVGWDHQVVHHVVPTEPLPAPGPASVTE
Compound,IC50 (PRMT5 [1]),IC50 (PRMT5 [2]),SAM/MTA Ratio (PRMT5 [2]),IC50 (PRMT5 [3]),IC50 [4],IC50 [5],MTAP Intact/Deleted Ratio [5]
"Cc1ncoc1COc1ccc2c(c1)CN[C@H]([C@H](O)CNC(=O)c1cc(NC3CCC3)ncn1)C2 [Compound 32, 6-(cyclobutylamino)-N—((R)-2-hydroxy-2-((S)-7-((4-methyloxazol-5-yl)methoxy)-1,2,3,4-tetrahydroisoquinolin-3-yl)ethyl)pyrimidine-4-carboxamide]",50 to 500 nM,< 50 nM,A (a Ki ratio greater than or equal to 10 fold between the Ki in the presence of SAM and the Ki in the presence of MTA),500 to 5000 nM,1000 to 10000 nM,< 1000 nM,B* (an IC50 ratio greater than or equal to 3 fold but lower than 10 fold between the IC50 in the HAP1 MTAP-intact cell line and the HAP1 MTAP-deleted cell line)
"COCCN(C)c1cc(C(=O)NC[C@@H](O)[C@@H]2Cc3ccc(OCc4ocnc4C)cc3CN2)cc(NC2CCC2)n1 [Compound 33, 2-(cyclobutylamino)-N—((R)-2-hydroxy-2-((S)-7-((4-methyloxazol-5-yl)methoxy)-1,2,3,4-tetrahydroisoquinolin-3-yl)ethyl)-6-((2-methoxyethyl)(methyl)amino)isonicotinamide]",50 to 500 nM,50 to 500 nM,A (a Ki ratio greater than or equal to 10 fold between the Ki in the presence of SAM and the Ki in the presence of MTA),50 to 500 nM,1000 to 10000 nM,< 1000 nM,B* (an IC50 ratio greater than or equal to 3 fold but lower than 10 fold between the IC50 in the HAP1 MTAP-intact cell line and the HAP1 MTAP-deleted cell line)
"Cc1ncoc1COc1ccc2c(c1)CN[C@H]([C@H](O)CNC(=O)c1ccnc(Nc3cccnc3)c1)C2 [Compound 34, N—((R)-2-hydroxy-2-((S)-7-((4-methyloxazol-5-yl)methoxy)-1,2,3,4-tetrahydroisoquinolin-3-yl)ethyl)-2-(pyridin-3-ylamino)isonicotinamide]",50 to 500 nM,< 50 nM,A (a Ki ratio greater than or equal to 10 fold between the Ki in the presence of SAM and the Ki in the presence of MTA),50 to 500 nM,≥ 10000 nM,1000 to 10000 nM,B* (an IC50 ratio greater than or equal to 3 fold but lower than 10 fold between the IC50 in the HAP1 MTAP-intact cell line and the HAP1 MTAP-deleted cell line)
"Cc1ncoc1COc1ccc2c(c1)CN[C@H]([C@H](O)CNC(=O)c1cc(NC3CCC3)ccn1)C2 [Compound 35, 4-(cyclobutylamino)-N—((R)-2-hydroxy-2-((S)-7-((4-methyloxazol-5-yl)methoxy)-1,2,3,4-tetrahydroisoquinolin-3-yl)ethyl)picolinamide]",50 to 500 nM,< 50 nM,A (a Ki ratio greater than or equal to 10 fold between the Ki in the presence of SAM and the Ki in the presence of MTA),500 to 5000 nM,1000 to 10000 nM,< 1000 nM,A* (an IC50 ratio greater than or equal to 10 fold between the IC50 in the HAP1 MTAP-intact cell line and the HAP1 MTAP-deleted cell line)
"COc1cnc(NC2CCC2)cc1C(=O)NC[C@@H](O)[C@@H]1Cc2ccc(OCc3ocnc3C)cc2CN1 [Compound 36, 2-(cyclobutylamino)-N—((R)-2-hydroxy-2-((S)-7-((4-methyloxazol-5-yl)methoxy)-1,2,3,4-tetrahydroisoquinolin-3-yl)ethyl)-5-methoxyisonicotinamide]",50 to 500 nM,< 50 nM,A (a Ki ratio greater than or equal to 10 fold between the Ki in the presence of SAM and the Ki in the presence of MTA),500 to 5000 nM,1000 to 10000 nM,< 1000 nM,B* (an IC50 ratio greater than or equal to 3 fold but lower than 10 fold between the IC50 in the HAP1 MTAP-intact cell line and the HAP1 MTAP-deleted cell line)
"CCC(=O)N1CCN(c2cc(C(=O)NC[C@@H](O)[C@@H]3Cc4ccc(OCc5ocnc5C)cc4CN3)cc(NC3CCC3)n2)CC1 [Compound 39, 2-(cyclobutylamino)-N—((R)-2-hydroxy-2-((S)-7-((4-methyloxazol-5-yl)methoxy)-1,2,3,4-tetrahydroisoquinolin-3-yl)ethyl)-6-(4-propionylpiperazin-1-yl)isonicotinamide]",50 to 500 nM,< 50 nM,A (a Ki ratio greater than or equal to 10 fold between the Ki in the presence of SAM and the Ki in the presence of MTA),50 to 500 nM,1000 to 10000 nM,< 1000 nM,A* (an IC50 ratio greater than or equal to 10 fold between the IC50 in the HAP1 MTAP-intact cell line and the HAP1 MTAP-deleted cell line)
"CC(=O)N1CCC(Nc2cc(C(=O)NC[C@@H](O)[C@@H]3Cc4ccc(OCc5ocnc5C)cc4CN3)cc(N3CCCCC3)n2)CC1 [Compound 40, 2-[(1-acetyl-4-piperidyl)amino]-N-[(2R)-2-hydroxy-2-[(3S)-7-[(4-methyloxazol-5-yl)methoxy]-1,2,3,4-tetrahydroisoquinolin-3-yl]ethyl]-6-(1-piperidyl)pyridine-4-carboxamide]",50 to 500 nM,< 50 nM,A (a Ki ratio greater than or equal to 10 fold between the Ki in the presence of SAM and the Ki in the presence of MTA),50 to 500 nM,1000 to 10000 nM,< 1000 nM,A* (an IC50 ratio greater than or equal to 10 fold between the IC50 in the HAP1 MTAP-intact cell line and the HAP1 MTAP-deleted cell line)
"CC(=O)N1CCC(Nc2cc(C(=O)NC[C@@H](O)[C@@H]3Cc4ccc(OCc5ocnc5C)cc4CN3)ncn2)CC1 [Compound 41, 6-[(1-acetyl-4-piperidyl)amino]-N-[(2R)-2-hydroxy-2-[(3S)-7-[(4-methyloxazol-5-yl)methoxy]-1,2,3,4-tetrahydroisoquinolin-3-yl]ethyl]pyrimidine-4-carboxamide]",50 to 500 nM,< 50 nM,A (a Ki ratio greater than or equal to 10 fold between the Ki in the presence of SAM and the Ki in the presence of MTA),500 to 5000 nM,≥ 10000 nM,1000 to 10000 nM,B* (an IC50 ratio greater than or equal to 3 fold but lower than 10 fold between the IC50 in the HAP1 MTAP-intact cell line and the HAP1 MTAP-deleted cell line)
"Cc1ncoc1COc1ccc2c(c1)CN[C@H]([C@H](O)CNC(=O)c1cc(NC3CC4(CCC4)C3)nc(N3CCN(C(=O)C4CC4)CC3)c1)C2 [Compound 42, 2-[4-(cyclopropanecarbonyl)piperazin-1-yl]-N-[(2R)-2-hydroxy-2-[(3S)-7-[(4-methyloxazol-5-yl)methoxy]-1,2,3,4-tetrahydroisoquinolin-3-yl]ethyl]-6-(spiro[3.3]heptan-2-ylamino)pyridine-4-carboxamide]",50 to 500 nM,50 to 500 nM,A (a Ki ratio greater than or equal to 10 fold between the Ki in the presence of SAM and the Ki in the presence of MTA),50 to 500 nM,< 1000 nM,< 1000 nM,A* (an IC50 ratio greater than or equal to 10 fold between the IC50 in the HAP1 MTAP-intact cell line and the HAP1 MTAP-deleted cell line)
"Cc1ncoc1COc1ccc2c(c1)CN[C@H]([C@H](O)CNC(=O)c1cc(NC3CC4(CCC4)C3)ncn1)C2 [Compound 43, N-[(2R)-2-hydroxy-2-[(3S)-7-[(4-methyloxazol-5-yl)methoxy]-1,2,3,4-tetrahydroisoquinolin-3-yl]ethyl]-6-(spiro[3.3]heptan-2-ylamino)pyrimidine-4-carboxamide]",50 to 500 nM,< 50 nM,A (a Ki ratio greater than or equal to 10 fold between the Ki in the presence of SAM and the Ki in the presence of MTA),50 to 500 nM,1000 to 10000 nM,< 1000 nM,A* (an IC50 ratio greater than or equal to 10 fold between the IC50 in the HAP1 MTAP-intact cell line and the HAP1 MTAP-deleted cell line)
"CC(=O)N1CCC(Nc2cc(C(=O)NC[C@@H](O)[C@@H]3Cc4ccc(OCc5ocnc5C)cc4CN3)ccn2)CC1 [Compound 44, 2-[(1-acetyl-4-piperidyl)amino]-N-[(2R)-2-hydroxy-2-[(3S)-7-[(4-methyloxazol-5-yl)methoxy]-1,2,3,4-tetrahydroisoquinolin-3-yl]ethyl]pyridine-4-carboxamide]",50 to 500 nM,< 50 nM,A (a Ki ratio greater than or equal to 10 fold between the Ki in the presence of SAM and the Ki in the presence of MTA),50 to 500 nM,≥ 10000 nM,1000 to 10000 nM,B* (an IC50 ratio greater than or equal to 3 fold but lower than 10 fold between the IC50 in the HAP1 MTAP-intact cell line and the HAP1 MTAP-deleted cell line)
